According to patent publication US7759345B2, “Antitumoral derivatives of ET-743” (priority 2001, dated 2010):
Where two headings read alike, the source gives them in different places.

Assays:
HT-29 [1] = test: Inhibition of cell growth by counting cells, HT-29; assay type: cell-based, human; conditions: Homo sapiens, HT-29, 72 h; three days of incubation; read-out: IC50 (molar) HT-29
Method: (§1) 1°.—Inhibition of Cell Growth by Counting Cells.
(§2) This form of the assay employs 24 well multidishes of 16 mm diameter (Bergeron, 1984; Schroeder, 1981). The tumor cell lines employed are: P-388 (ATCC CCL 46), suspension culture of a lymphoid neoplasm from a DBA/2 mouse; A-549 (ATCC CCL 185), monolayer culture of a human lung carcinoma; HT-29 (ATCC HTB-38), monolayer culture of a human colon carcinoma; MEL-28 (ATCC HTB-72), monolayer culture of a human melanoma and DU-145 (ATCC HTB-81), monolayer culture of a human prostate carcinoma.
(§3) Cells were maintained, in logarithmic phase of growth in Eagle's Minimum Essential Medium, with Earle's Balanced Salts, with non-essential amino acids, with 2.0 mM L-Glutamine, without sodium bicarbonate (EMEM/neaa), supplemented with 10% Fetal Calf Serum (FCS), 10^−2 M. sodium bicarbonate and 0.1 U/l penicillin G+0.1 g/l streptomycin sulfate. For the experiments, cells are harvested from subconfluent cultures using trypsin and resuspended in fresh medium before plating.
(§4) A-549, HT-29, MEL-28 and DU-145 cells were seeded into 16 mm diameter wells at 1×10^4 cells per well in 1 ml aliquots of EMEM 5% FCS containing different concentrations of the sample to be tested. A separate set of cultures without drug was seeded as control of growth, to ensure that cells remained in exponential phase of growth. All determinations are carrying out in duplicate. After three days of incubation at 37° C., 5% CO2 in a 98% humid atmosphere cells were stained with 0.1% crystal violet. An approximately IC50 was determined by comparing the growth in wells with drug to the growth in wells control.
(§5) For quantifying the activity, after the incubation time, cells are trypsinized and counted in a Coulter Counter ZM. All counts (net cells per well), represent the average of duplicate wells. % G, percent of growth relative to cultures without drug. The results of these assays are used to generate dose-response curves from which more precise IC50 values are determined (sample concentration which produces 50% cell growth inhibition).
(§6) Obtained results may predict the usefulness of a certain drug as a potential cancer treatment. For this technique, compounds which show IC50 values smaller than 1 μg/ml are selected to continue with further studies. IC50's data allow to predict that not only could a drug be cystostatic, but also it could have a potential in terms of tumor reduction.

A-549 [2] = test: Inhibition of cell growth by counting cells, A-549; assay type: cell-based, human; conditions: Homo sapiens, A549, 72 h; three days of incubation; read-out: IC50 (molar) A-549
Method: as §1, §2, §3, §4, §5, §6

A-549 [3] = test: Inhibition of cells growth by colorimetric assay (SRB), A-549; assay type: cell-based; conditions: for GI50 / LC50 (concentration for 50% cell killing): Homo sapiens, A549, 48 h; for GI50: read-out: A-549 GI50
Method: (§7) 2°.—Inhibition of Cells Growth by Colorimetric Assay.
(§8) A colorimetric type of assay, using sulforhodamine B (SRB) reaction has been adapted for a quantitative measurement of cell growth and viability [following the technique described by Philip Skehan, et al. (1990), New colorimetric cytotoxicity assay for anticancer drug screening, J. Natl. Cancer Inst., 82:1107-1112]
(§9) This form of the assay employs 96 well cell culture microplates of 9 mm diameter (Faircloth, 1988; Mosmann, 1983). Most of the cell lines are obtained from American Type Culture Collection (ATCC) derived from different human cancer types.
(§10) Cells are maintained in RPMI 1640 10% FBS, supplemented with 0.1 g/l penicillin and 0.1 g/l streptomycin sulfate and then incubated at 37° C., 5% CO2 and 98% humidity. For the experiments, cells were harvested from subconfluent cultures using trypsin and resuspended in fresh medium before plating.
(§11) Cells are seeded in 96 well microtiter plates, at 5×10^3 cells per well in aliquots of 195 μl medium, and they are allowed to attach to the plate surface by growing in drug free medium for 18 hours. Afterward, samples are added in aliquots of 5 μl in a ranging from 10 to 10^−8 μg/ml, dissolved in DMSO/EtOH/PBS (0.5:0.5:99). After 48 hours exposure, the antitumor effect are measured by the SRB methodology: cells are fixed by adding 50 μl of cold 50% (wt/vol) trichloroacetic acid (TCA) and incubating for 60 minutes at 4° C. Plates are washed with deionized water and dried. One hundred μl of SRB solution (0.4% wt/vol in 1% acetic acid) is added to each microtiter well and incubated for 10 minutes at room temperature. Unbound SRB is removed by washing with 1% acetic acid. Plates are air dried and bound stain is solubilized with Tris buffer. Optical densities are read on a automated spectrophotometric plate reader at a single wavelength of 490 nm.
(§12) The values for mean+/−SD of data from triplicate wells are calculated. Some parameters for cellular responses can be calculated: GI=growth inhibition, TGI=total growth inhibition (cytostatic effect) and LC=cell killing (cytotoxic effect).
(§13) Obtained results may predict the usefulness of a certain drug as a potential cancer treatment. For this technique, compounds which show GI50 values smaller than 10 μg/ml are selected to continue with further studies. GI50's data allow to predict that not only could a drug be cystostatic, but also it could have a potential in terms of tumor reduction.

HT-29 [4] = test: Inhibition of cells growth by colorimetric assay (SRB), HT-29; assay type: cell-based; conditions: for GI50 / LC50 (concentration for 50% cell killing): Homo sapiens, HT-29, 48 h
Method: as §7, §8, §9, §10, §11, §12, §13

[5] = read-out: A-549 LC50, SRB assay, 48 hours exposure
[6] = read-out: HT-29 LC50, SRB assay, 48 hours exposure
[7] = SRB assay, 48 hours exposure, read-out: HT-29 GI50

| SMILES | IC50 (HT-29 [1]) | IC50 (A-549 [2]) | LC50 (concentration for 50% cell killing) (A-549 [3]; [5]) | A-549 TGI (A-549 [3]; SRB assay, 48 hours exposure) | LC50 (concentration for 50% cell killing) (HT-29 [4]; [6]) | HT-29 TGI (HT-29 [4]; SRB assay, 48 hours exposure) | also measured |
| --- | --- | --- | --- | --- | --- | --- | --- |
| COc1cc2c(cc1OC(=O)CCc1ccccc1)CCN[C@]21CS[C@@H]2c3c(OC(C)=O)c(C)c4c(c3[C@H](COC1=O)N1C2[C@H]2c3c(cc(C)c(OC)c3O)C[C@@H]([C@@H]1C#N)N2C)OCO4 (some centres unmarked) [Compound 11] | 0.554 nM | 0.554 nM | – | – | – | – | – |
| COc1cc2c(cc1OC(=O)CCCl)CCN[C@]21CS[C@@H]2c3c(OC(C)=O)c(C)c4c(c3[C@H](COC1=O)N1C2[C@H]2c3c(cc(C)c(OC)c3O)C[C@@H]([C@@H]1C#N)N2C)OCO4 (some centres unmarked) [Compound 12] | 0.116 nM | 0.116 nM | – | – | – | – | – |
| COc1cc2c(cc1OC(=O)[C@H](C)NC(=O)OC(C)(C)C)CCN[C@]21CS[C@@H]2c3c(OC(C)=O)c(C)c4c(c3[C@H](COC1=O)N1C2[C@H]2c3c(cc(C)c(OC)c3O)C[C@@H]([C@@H]1C#N)N2C)OCO4 (some centres unmarked) [Compound 24] | 0.531 nM | 0.531 nM | – | – | – | – | – |
| COc1cc2c(cc1OC(=O)OC(C)(C)C)CCN[C@]21CS[C@@H]2c3c(OC(C)=O)c(C)c4c(c3[C@H](COC1=O)N1C2[C@H]2c3c(cc(C)c(OC)c3OC)C[C@@H]([C@@H]1C#N)N2C)OCO4 (some centres unmarked) [Compound 45] | 0.113 nM | 0.113 nM | – | – | – | – | – |
| COC1=C(C)C(=O)C2=C(C1=O)[C@@H]1C3[C@@H]4SC[C@]5(NCCc6cc(O)c(OC)cc65)C(=O)OC[C@@H](c5c6c(c(C)c(OC(C)=O)c54)OCO6)N3[C@@H](C#N)[C@H](C2)N1C (some centres unmarked) [Compound 52] | 1.27 nM | 1.27 nM | – | – | – | – | – |
| CCCC(=O)Oc1cc2c(cc1OC)[C@@]1(CS[C@@H]3c4c(OC(C)=O)c(C)c5c(c4[C@H](COC1=O)N1C3[C@H]3c4c(cc(C)c(OC)c4OC(=O)CCC)C[C@@H]([C@@H]1O)N3C)OCO5)NCC2 (some centres unmarked) [Compound 81] | 5.54 nM | 5.54 nM | – | – | – | – | – |
| CCCCCCCC(=O)Oc1cc2c(cc1OC)[C@@]1(CS[C@@H]3c4c(OC(C)=O)c(C)c5c(c4[C@H](COC1=O)N1C3[C@H]3c4c(cc(C)c(OC)c4OC(=O)CCCCCCC)C[C@@H]([C@@H]1O)N3C)OCO5)NCC2 (some centres unmarked) [Compound 82] | 98.6 nM | 98.6 nM | – | – | – | – | – |
| COc1cc2c(cc1OC(=O)/C=C/c1ccccc1)CCN[C@]21CS[C@@H]2c3c(OC(C)=O)c(C)c4c(c3[C@H](COC1=O)N1C2[C@H]2c3c(cc(C)c(OC)c3OC(=O)/C=C/c3ccccc3)C[C@@H]([C@@H]1O)N2C)OCO4 (some centres unmarked) [Compound 84] | 48.9 nM | 48.9 nM | – | – | – | – | – |
| COc1cc2c(cc1O)CCN[C@]21CS[C@@H]2c3c(OC(=O)CCCC[C@@H]4SCC5NC(=O)NC54)c(C)c4c(c3[C@H](COC1=O)N1C2[C@H]2c3c(cc(C)c(OC)c3OC(=O)CCCCC3SCC5NC(=O)NC53)C[C@@H]([C@@H]1C#N)N2C)OCO4 (some centres unmarked) [Compound 148] | – | – | – | – | – | – | A-549 TGI (A-549 [3]; A-549, SRB, 48 hours exposure): 5.19E-07; GI50 (A-549 [3]; A-549, SRB, 48 hours exposure): 255 nM; LC50 (concentration for 50% cell killing) (A-549 [3]; read-out: A-549 LC50, A-549, SRB, 48 hours exposure): 2880 nM; HT-29 TGI (HT-29 [4]; HT-29, SRB, 48 hours exposure): 3.32E-07; GI50 (HT-29 [4]; HT-29, SRB, 48 hours exposure, read-out: HT-29 GI50): 140 nM; LC50 (concentration for 50% cell killing) (HT-29 [4]; read-out: HT-29 LC50, HT-29, SRB, 48 hours exposure): 786 nM |
| CCCC(=O)Oc1cc2c(cc1OC)[C@@]1(CS[C@@H]3c4c(OC(C)=O)c(C)c5c(c4[C@H](COC1=O)N1C3[C@H]3c4c(cc(C)c(OC)c4OC(=O)CCC)C[C@@H]([C@@H]1C#N)N3C(=O)OC(C)(C)C)OCO5)NCC2 (some centres unmarked) [Compound 193] | – | – | 100 nM | 4.01E-09 | 20100 nM | 2.01E-08 | GI50 (A-549 [3]): 0.401 nM; GI50 (HT-29 [4]; read-out: HT-29 GI50): 0.1 nM |
| COc1cc2c(cc1O)CCN(C)[C@]21CS[C@@H]2c3c(OC(C)=O)c(C)c4c(c3[C@H](COC1=O)N1C2[C@H]2c3c(cc(C)c(OC)c3O)C[C@@H]([C@@H]1C#N)N2C(=O)OC(C)(C)C)OCO4 (some centres unmarked) [Compound 200] | – | – | 115 nM | 3.45E-08 | 1150 nM | 8.05E-09 | GI50 (A-549 [3]; SRB assay, 48 hours exposure): 23 nM; GI50 (HT-29 [4]; [7]): 23 nM |
| COc1cc2c(cc1OC(C)=O)CCN[C@]21CS[C@@H]2c3c(OC(C)=O)c(C)c4c(c3[C@H](COC1=O)N1C2[C@@H]2N[C@@H](Cc3cc(C)c(OC)c(O)c32)[C@@H]1O)OCO4 (some centres unmarked) [Compound 210] | – | – | 38000 nM | 5.06E-13 | 63300 nM | 6.33E-08 | – |
| CCCC(=O)Oc1cc2c(cc1OC)[C@@]1(CS[C@@H]3c4c(OC(C)=O)c(C)c5c(c4[C@H](COC1=O)N1C3[C@@H]3N[C@@H](Cc4cc(C)c(OC)c(O)c43)[C@@H]1O)OCO5)NCC2 (some centres unmarked) [Compound 211] | – | – | 61100 nM | 6.11E-09 | 61100 nM | 1.22E-12 | GI50 (A-549 [3]; SRB assay, 48 hours exposure): 0.00367 nM; GI50 (HT-29 [4]; [7]): 0.00122 nM |
| CC(=O)Oc1c(C)c2c(c3c1[C@H]1SCC(=O)C(=O)OC[C@@H]3N3C1[C@H]1c4c(cc(C)c(O)c4O)C[C@@H]([C@@H]3C#N)N1C)OCO2 (some centres unmarked) [Compound 219] | – | – | 16500 nM | 1.65E-06 | 16500 nM | 1.65E-06 | GI50 (A-549 [3]; SRB assay, 48 hours exposure): 8.24 nM; GI50 (HT-29 [4]; [7]): 82.4 nM |
| COc1cc2c(cc1O)CCN[C@]21CS[C@@H]2c3c(OC(C)=O)c(C)c4c(c3[C@H](COC1=O)N1C2[C@H]2c3c(cc(C)c(O)c3O)C[C@@H]([C@@H]1C#N)N2C)OCO4 (some centres unmarked) [Compound 220] | – | – | 6610 nM | 3.96E-07 | – | – | GI50 (A-549 [3]): 132 nM; GI50 (HT-29 [4]; read-out: H-T29 GI50): 132 nM; LC50 (concentration for 50% cell killing) (HT-29 [4]; read-out: H-T29 LC50, SRB assay, 48 hours exposure): 1320 nM; H-T29 TGI (HT-29 [4]; SRB assay, 48 hours exposure): 5.28E-07 |
